In patent US6716987B1, “Derivatives of benzofuran or benzodioxazole compounds” (Kyowa Hakko Kogyo Co., Ltd., priority 1995, dated 2004):
pIC50: −log10 of the molar value.

What was measured:
[1] = system: cAMP-specific phosphodiesterase (PDE IV); experiment: Inhibition of the PDE IV enzyme derived from a dog trachea; format: biochemical; settings: test compound 10^−6 M; PDE IV from dog tracheal smooth muscle; substrate cAMP 1 μM
Procedure, shortened: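 Enzyme purified from dog tracheal smooth muscle; [3H]cAMP substrate at 1 μM final in 50 mM BES pH 7.2, 1 mM MgCl2, 0.1 mg/ml soybean trypsin inhibitor, 30° C for 10–30 min, 1.7% DMSO final. After HCl stop, product converted to adenosine by 5′-nucleotidase, separated on DEAE-Sephadex and scintillation-counted.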

[2] = system: guinea pig bronchial smooth muscle; experiment: Suppression of passive Schultz-Dale response in guinea pig bronchial smooth muscle; settings: Cavia porcellus; ovalbumin-induced constriction of passively sensitized guinea pig tracheal strips; read-out: IC50 (concentration causing 50% relaxation)
Description: For passive sensitization, rabbit anti-ovalbumin serum prepared by the method of Kohda et al. [Nichiyakurishi, 66, 237 (1970)] was peritoneally administered to male Hartley guinea pigs weighing 350 to 500 g, and 24 hours later the tracheae thereof were removed to be used for the experiment. Zig-zag strips were prepared from the tracheae in accordance with the method of Emmerson and Mackay [J. Pharm. Pharmacol., 31, 798 (1979)], and they were suspended in a Krebs-Henseleit solution with aeration of a mixture of 95% oxygen and 5% carbon dioxide at 37° C. After stabilizing for approximately one hour, ovalbumin, as the antigen, was added to the mixture (at a final concentration of […]), and the constriction of the muscle was recorded by a recorder (TYPE 3066; Yokokawa Hokushin Denki) via an isotonic transducer (TD-112S; Nippon Koden). A test compound was cumulatively added to the mixture after the constriction had reached the plateau, and the relaxation ratio was determined. The concentration (IC50) causing 50% relaxation was calculated by linear regression analysis.

[3] = system: histamine-induced bronchoconstriction; experiment: Suppression of histamine-induced bronchoconstriction response in guinea pig; format: in vivo; settings: intravenous administration; histamine 10 μg/kg iv
Description: This test was carried out by a modified Konzett and Rossler method. Under anesthesia with urethane (1.2 g/kg, ip), male Hartley guinea pigs (body weight: 500 to 600 g) were fixed on plates by strings. After undertaking a tracheotomy, cannulae were inserted to the tracheae, right carotid arteries, and left cervical veins. The spontaneous respiration of the guinea pigs was stopped by the administration of gallamie (10 mg/kg) from the left cervical veins via the cannulae. The cannulae inserted into the tracheae were connected to a bronchospasm transducer (Ugo Basile) and a respirator (TB-101, Takashima-shoten, 60 to 70 strokes/minutes, output: 5 cc) and the air overflow volume was recorded by a polygraph (RM-45, Nippon Koden) to measure the amount of bronchoconstriction. For measuring blood pressure, the cannulae inserted in the right carotid arteries were connected to a blood-pressure transducer. Constant bronchoconstriction occurred when histamine (10 μg/kg, iv) was administered at 3 minutes intervals, and the induced bronchoconstriction was used as the control. A test compound was intravenously administered, and one minute later histamine (10 μg/kg, iv) was administered. The test compound was cumulatively administered at 5 minutes intervals, and the bronchoconstriction in control and that after the administration of the test compound was compared.

phosphodiesterase 4A = target: T1, phosphodiesterase 4A (Homo sapiens, UniProt P27815); experiment: Recombinant human PDE4A assay; format: biochemical
T1 construct: made in house; host or cells: E. coli

[4] = system: anaphylactic bronchoconstriction; experiment: Effect on anaphylactic bronchoconstriction response; format: in vivo, guinea pig; settings: oral administration one hour before the antigen; from AUC suppression ratio
Description: For passive sensitization, 1 ml of rabbit anti-ovalbumine serum was peritoneally administered to male Hartley guinea pigs, and 16 to 24 hours later, ovalbumine was intravenously administered as the antigen. The induced anaphylactic bronchoconstriction was measured by the modified Konzett and Rossler method. Each of the tracheal cannulae was completely closed at the end of the measurement and the measured constriction was defined as the maximum constriction. Changes in the constriction were measured as percentage in the maximum constriction. The area under the curve (AUC) indicating the strength of the response was calculated by an image analyzer (MCID system, Imaging Research Company). The test compound was orally administered one hour before the antigen administration, and the ID50 value of each drug was calculated from the AUC suppression ratio by linear regression analysis.

T1 sequence (P27815 224-886 limits assumed): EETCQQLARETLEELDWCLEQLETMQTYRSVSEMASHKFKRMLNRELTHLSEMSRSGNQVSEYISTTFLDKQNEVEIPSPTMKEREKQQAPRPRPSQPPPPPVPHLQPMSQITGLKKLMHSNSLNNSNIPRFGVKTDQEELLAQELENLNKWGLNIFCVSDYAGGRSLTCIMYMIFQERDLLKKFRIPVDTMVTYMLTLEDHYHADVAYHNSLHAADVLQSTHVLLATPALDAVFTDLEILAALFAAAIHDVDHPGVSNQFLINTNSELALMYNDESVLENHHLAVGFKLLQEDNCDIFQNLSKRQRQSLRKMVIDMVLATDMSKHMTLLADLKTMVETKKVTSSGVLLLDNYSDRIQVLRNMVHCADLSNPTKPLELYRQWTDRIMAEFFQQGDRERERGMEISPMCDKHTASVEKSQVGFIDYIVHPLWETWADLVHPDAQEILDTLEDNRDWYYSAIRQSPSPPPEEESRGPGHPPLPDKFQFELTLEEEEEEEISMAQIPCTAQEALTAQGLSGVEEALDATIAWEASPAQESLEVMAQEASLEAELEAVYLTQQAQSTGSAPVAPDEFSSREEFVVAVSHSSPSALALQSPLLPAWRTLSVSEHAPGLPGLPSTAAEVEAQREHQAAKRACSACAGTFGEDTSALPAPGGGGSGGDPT

In the case of `COc1ccc(/C=C/c2ccncc2)c2c1OC(C)(C)C2` [Compound 68, (E)-7-Methoxy-2,2-dimethyl-4-[2-(4-pyridyl)ethenyl]-2,3-dihydrobenzofuran], the “Enzyme Inhibitory Activity (%, 10^−6 M)” value [1] was 80%, the pIC50 [2] was 5.80 and the “ID50 value (50% inhibitory dose)” value [3] was 0.076 mg/kg. The melting point was 145 to 149 °C.

For `COc1ccc(C(=O)Cc2ccncc2)c2c1OC1(CCCC1)C2.Cl` [Compound 100, 7-Methoxy-4-[1-oxo-2-(4-pyridyl)ethyl]-spiro[2,3-dihydrobenzofuran-2,1′-cyclopentane].hydrochloride], the “Enzyme Inhibitory Activity (%, 10^−7 M)” value (phosphodiesterase 4A) was 99% and the “ID50 value (50% inhibitory dose)” value [4] was 0.53 mg/kg.
